PubChem BioAssay AID328 (DTP/NCI, 2004)
Values joined by “and” are separate entries in the source; they are usually repeats but may differ in a detail not shown here. Equal entries are not always repeated. Inconclusive results and toxic doses are left out.

Tested on: BDF1 mice, P388 leukemia ip, median survival T/C
Assay: NCI In Vivo Anticancer Drug Screen. Data for tumor model P388 Leukemia (intraperitoneal) in B6D2F1 (BDF1) mice
Details: endpoint: median survival time, higher = longer survival
Outline: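 Vehicle-dosed animals serve as the reference; survival of compound-dosed, tumour-implanted mice is divided by it.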

[1] = dose: 100.0 mg/kg/injection, schedule: Q01DX009 (ip), vehicle: saline
[2] = dose: 25.0 mg/kg/injection, schedule: Q01DX009 (ip), vehicle: Klucel (hydroxypropylcellulose) (HPC)
[3] = dose: 100.0 mg/kg/injection, schedule: Q04DX003 (ip), vehicle: saline with Tween-80
[4] = dose: 200.0 mg/kg/injection, schedule: Q04DX003 (ip), vehicle: saline with Tween-80
[5] = dose: 400.0 mg/kg/injection, schedule: Q04DX003 (ip), vehicle: saline with Tween-80
[6] = dose: 50.0 mg/kg/injection, schedule: Q01DX009 (ip), vehicle: Klucel (hydroxypropylcellulose) (HPC)
[7] = dose: 25.0 mg/kg/injection, schedule: Q01DX009 (ip), vehicle: saline
[8] = dose: 12.5 mg/kg/injection, schedule: Q01DX009 (ip), vehicle: saline
[9] = dose: 12.5 mg/kg/injection, schedule: Q04DX003 (ip), vehicle: saline with Tween-80
[10] = dose: 50.0 mg/kg/injection, schedule: Q04DX003 (ip), vehicle: saline
[11] = dose: 50.0 mg/kg/injection, schedule: Q04DX003 (ip), vehicle: saline with Tween-80
[12] = dose: 50.0 mg/kg/injection, schedule: Q01DX005 (ip), vehicle: saline with Tween-80
[13] = dose: 100.0 mg/kg/injection, schedule: Q01DX005 (ip), vehicle: saline with Tween-80
[14] = dose: 200.0 mg/kg/injection, schedule: Q01DX005 (ip), vehicle: saline with Tween-80
[15] = dose: 50.0 mg/kg/injection, schedule: Q04DX003 (ip), vehicle: Klucel (hydroxypropylcellulose) (HPC)

O=C1C(N2CC2)=C(N2CC2)C(=O)C(N2CC2)=C1N1CC1
T/C (dose: 0.02 mg/kg/injection, schedule: Q01DX009 (ip), vehicle: saline): 232 % of control and 307 % of control | T/C (dose: 0.04 mg/kg/injection, schedule: Q01DX009 (ip), vehicle: saline): 201 % of control | T/C (dose: 0.04 mg/kg/injection, schedule: Q04DX003 (ip), vehicle: saline with Tween-80): 114 % of control | T/C (dose: 0.06 mg/kg/injection, schedule: Q04DX003 (ip), vehicle: saline with Tween-80): 118 % of control | T/C (dose: 0.07 mg/kg/injection, schedule: Q04DX003 (ip), vehicle: saline with Tween-80): 109 % of control | T/C (dose: 0.08 mg/kg/injection, schedule: Q01DX009 (ip), vehicle: saline): 109 % of control | T/C (dose: 0.11 mg/kg/injection, schedule: Q04DX003 (ip), vehicle: other): 200 % of control | T/C (dose: 0.15 mg/kg/injection, schedule: Q04DX003 (ip), vehicle: saline with Tween-80): 185 % of control | T/C (dose: 0.25 mg/kg/injection, schedule: Q04DX003 (ip), vehicle: other): 186 % of control | T/C (dose: 0.25 mg/kg/injection, schedule: Q04DX003 (ip), vehicle: saline with Tween-80): 163 % of control | T/C (dose: 6.6 micrograms/kg/injection, schedule: Q01DX009 (ip), vehicle: saline with Tween-80): 150 % of control | T/C (dose: 10.0 micrograms/kg/injection, schedule: Q01DX009 (ip), vehicle: saline with Tween-80): 175 % of control | T/C (dose: 20.0 micrograms/kg/injection, schedule: Q01DX009 (ip), vehicle: saline with Tween-80): 164 % of control | T/C (dose: 30.0 micrograms/kg/injection, schedule: Q01DX009 (ip), vehicle: saline with Tween-80): 164 % of control | T/C (dose: 31.3 micrograms/kg/injection, schedule: Q01DX009 (ip), vehicle: saline with Tween-80): 156 % of control | T/C (dose: 45.0 micrograms/kg/injection, schedule: Q01DX009 (ip), vehicle: saline with Tween-80): 268 % of control | T/C (dose: 62.5 micrograms/kg/injection, schedule: Q01DX009 (ip), vehicle: saline with Tween-80): 87 % of control | T/C (dose: 125.0 micrograms/kg/injection, schedule: Q01DX009 (ip), vehicle: saline with Tween-80): 86 % of control

CCOCCc1ccccn1
T/C [1]: 100 % of control | T/C (dose: 200.0 mg/kg/injection, schedule: Q01DX009 (ip), vehicle: saline): 104 % of control | T/C (dose: 400.0 mg/kg/injection, schedule: Q01DX009 (ip), vehicle: saline): 122 % of control

CC[C@H](C)c1occ2c(O)c(C(=O)O)c(=O)cc-2c1C
T/C (dose: 6.0 mg/kg/injection, schedule: Q01DX009 (ip), vehicle: Klucel (hydroxypropylcellulose) (HPC)): 100 % of control | T/C (dose: 12.0 mg/kg/injection, schedule: Q01DX009 (ip), vehicle: Klucel (hydroxypropylcellulose) (HPC)): 118 % of control | T/C [2]: 118 % of control

O=CNc1ccc(O)cc1
T/C [3]: 104 % of control | T/C [4]: 104 % of control | T/C [5]: 100 % of control

Oc1c(CN2CCOCC2)cc(CN2CCOCC2)cc1CN1CCOCC1
T/C (dose: 100.0 mg/kg/injection, schedule: Q01DX009 (ip), vehicle: saline with Tween-80): 91 % of control | T/C (dose: 200.0 mg/kg/injection, schedule: Q01DX009 (ip), vehicle: saline with Tween-80): 86 % of control | T/C (dose: 400.0 mg/kg/injection, schedule: Q01DX009 (ip), vehicle: saline with Tween-80): 100 % of control

Oc1c(I)cc(Cl)c2cccnc12
T/C (dose: 12.5 mg/kg/injection, schedule: Q01DX009 (ip), vehicle: Klucel (hydroxypropylcellulose) (HPC)): 115 % of control | T/C [2]: 115 % of control | T/C [6]: 120 % of control

COC1=C(N=[N+]=[N-])C(=O)C(OC)=C(N=[N+]=[N-])C1=O
T/C (dose: 10.0 mg/kg/injection, schedule: Q04DX003 (ip), vehicle: saline): 100 % of control | T/C (dose: 20.0 mg/kg/injection, schedule: Q04DX003 (ip), vehicle: saline): 100 % of control | T/C (dose: 22.5 mg/kg/injection, schedule: Q01DX009 (ip), vehicle: saline): 114 % of control | T/C (dose: 40.0 mg/kg/injection, schedule: Q04DX003 (ip), vehicle: saline): 108 % of control | T/C (dose: 45.0 mg/kg/injection, schedule: Q01DX009 (ip), vehicle: saline): 123 % of control | T/C (dose: 90.0 mg/kg/injection, schedule: Q01DX009 (ip), vehicle: saline): 114 % of control | T/C (dose: 90.0 mg/kg/injection, schedule: Q04DX003 (ip), vehicle: saline): 122 % of control

O[C@]12CC=CC[C@]1(O)CC(N1CCCCC1)C2
T/C [7]: 99 % of control | T/C (dose: 50.0 mg/kg/injection, schedule: Q01DX009 (ip), vehicle: saline): 124 % of control | T/C [1]: 92 % of control

Clc1ccc2c(c1)N(CCCN1CCCC13CCCCC3)c1ccccc1S2
T/C (dose: 1.56 mg/kg/injection, schedule: Q01DX009 (ip), vehicle: saline): 87 % of control | T/C (dose: 1.56 mg/kg/injection, schedule: Q04DX003 (ip), vehicle: saline with Tween-80): 91 % of control | T/C (dose: 3.12 mg/kg/injection, schedule: Q01DX009 (ip), vehicle: saline): 104 % of control | T/C (dose: 3.12 mg/kg/injection, schedule: Q04DX003 (ip), vehicle: saline with Tween-80): 91 % of control | T/C (dose: 6.25 mg/kg/injection, schedule: Q01DX009 (ip), vehicle: saline): 95 % of control | T/C (dose: 6.25 mg/kg/injection, schedule: Q04DX003 (ip), vehicle: saline with Tween-80): 91 % of control | T/C [8]: 95 % of control | T/C [9]: 95 % of control

CN1CC=C(N2CCOCC2)CC1
T/C (dose: 25.0 mg/kg/injection, schedule: Q04DX003 (ip), vehicle: saline): 120 % of control | T/C [10]: 120 % of control | T/C (dose: 100.0 mg/kg/injection, schedule: Q04DX003 (ip), vehicle: saline): 120 % of control

O=[N+]([O-])c1cccc(N2CN(c3ccccc3)NC(c3ccccc3)=N2)c1
T/C [9]: 100 % of control | T/C (dose: 25.0 mg/kg/injection, schedule: Q04DX003 (ip), vehicle: saline with Tween-80): 96 % of control | T/C [11]: 105 % of control

Cc1sc2c(c1-c1ccccc1)C(=O)CCCN2
T/C (dose: 25.0 mg/kg/injection, schedule: Q01DX005 (ip), vehicle: saline with Tween-80): 108 % of control | T/C [12]: 101 % of control | T/C [11]: 107 % of control | T/C [13]: 118 % of control | T/C [3]: 107 % of control | T/C [14]: 118 % of control | T/C [4]: 105 % of control | T/C [5]: 105 % of control

CC1(C)N=C(N)N=C(N)N1c1ccc(OCCCOc2ccc(S(=O)(=O)F)cc2)c(Cl)c1
T/C (dose: 0.66 mg/kg/injection, schedule: Q01DX009 (ip), vehicle: saline): 108 % of control | T/C (dose: 0.99 mg/kg/injection, schedule: Q01DX009 (ip), vehicle: saline): 104 % of control | T/C [8]: 165 % of control | T/C [7]: 115 % of control | T/C (dose: 33.0 mg/kg/injection, schedule: Q04DX003 (ip), vehicle: saline): 109 % of control and 120 % of control | T/C [10]: 114 % of control and 120 % of control | T/C (dose: 75.0 mg/kg/injection, schedule: Q04DX003 (ip), vehicle: saline): 114 % of control

COC(=O)CCCCI
T/C [12]: 105 % of control | T/C [13]: 110 % of control | T/C [14]: 107 % of control

CC(C)(C)NCC(CN(CC(CNC(C)(C)C)C(=O)c1ccccc1)C(C)(C)C)C(=O)c1ccccc1 (stereo not drawn)
T/C (dose: 12.5 mg/kg/injection, schedule: Q04DX003 (ip), vehicle: Klucel (hydroxypropylcellulose) (HPC)): 104 % of control | T/C (dose: 25.0 mg/kg/injection, schedule: Q04DX003 (ip), vehicle: Klucel (hydroxypropylcellulose) (HPC)): 104 % of control | T/C [15]: 112 % of control

O=C(Nc1ccc2ncccc2c1)Nc1ccc2ncccc2c1
T/C [6]: 87 % of control | T/C [15]: 91 % of control | T/C (dose: 100.0 mg/kg/injection, schedule: Q01DX009 (ip), vehicle: Klucel (hydroxypropylcellulose) (HPC)): 95 % of control | T/C (dose: 100.0 mg/kg/injection, schedule: Q04DX003 (ip), vehicle: Klucel (hydroxypropylcellulose) (HPC)): 95 % of control | T/C (dose: 200.0 mg/kg/injection, schedule: Q04DX003 (ip), vehicle: Klucel (hydroxypropylcellulose) (HPC)): 91 % of control
